Laboratory results reported in US8394816B2, “Methods of using [3.2.0] heterocyclic compounds and analogs thereof in treating Waldenstrom's Macroglobulinemia” (priority 2007, dated 2013).
Blank lines part the entries; values can stand above or below the compound they belong to.

Assays:
Stability in solution = type: physicochemical; details: converted to compound VI-1B, mixture 7:3
Procedure: The compound of Formula I-16 (15 mg, 0.048 mmol) was dissolved in 1:1 ratio of ACN/DMSO (8 ml) in a scintillation vial (20 ml) to which triethylamine (40 μl, 0.29 mmol), Glutathione (44.2 mg, 0.144 mmol) and a magnetic stir bar were added. The reaction mixture was stirred at room temperature for about 3 hours. The solvent was evaporated from the reaction mixture to yield the compound of Formula I-48, which was purified by reversed phase HPLC using Ace 5u C18 column (150 mm×22 mm ID) with a solvent gradient of 10% to 70% H2O/Acetonitrile over 15 min, 70 to 100% Acetonitrile over 5 min, holding at 100% Acetonitrile for 4 min, at a flow rate of 14.5 ml/min. Diode array detector was used to monitor the purification process. Compound I-48 (10 mg) eluted as a pure compound at 8.255 min. Compound I-48: UV (Acetonitrile/H2O) λmax 235 (sh) nm; ESMS m/z 621.0 (M+H)^+. […] Compound VI-1B: UV (Acetonitrile/H2O) λmax 235 (sh) nm; ESMS, m/z 585.2 (M+H)^+.

[1] = tested on: p65 phosphorylation and p50NF-κB expression; assay: Fibronectin-induced NF-κB activity, western blotting of nuclear extracts; details: each agent 10 nM, 4 hours
Description: Nuclear extracts were subjected to western blotting using anti-p-p65, -p50, and -nucleolin antibodies.

[2] = tested on: chymotrypsin-like (CT-L) activity of the 20S proteasome; assay: 20S proteasome chymotrypsin-like activity in treated cells; details: 10 nM, 4 hours
[3] = tested on: caspase-like (C-L) activity of the 20S proteasome; assay: 20S proteasome caspase-like activity in treated cells; type: cell-based; details: each agent 10 nM, 4 hours
WM = details: single agent, phase I trials; cited from earlier work
BCWM.1 cells [4] = assay: IL-6-induced proliferation, thymidine uptake; type: cell-based; details: salinosporamide A 2.5-20 nM, bortezomib 10 nM, IL-6 25 ng/mL
Procedure: Proliferation was assessed by thymidine uptake assay.
(§1) The effect of the two proteasome inhibitors on cytotoxicity of WM cells in the presence of IL-6 was also investigated. […] Whether the two proteasome inhibitors, used as single agent or in combination, could also target non-malignant hematopoietic cells was investigated.

[5] = tested on: BCWM.1 cells homing to the bone marrow; type: in vivo, BALB/c mice; details: single agents, cells pretreated; data not shown
Procedure: FIG. 6D is a graph showing in vivo flow cytometry. DiI-labeled treated cells and DiR-labeled untreated cells were injected in the tail vein of 2 BALB/c mice. Cells were counted every 5 min for 45 minutes as described in Material and Methods.
DI-labeled BCWM.1 cells treated with salinosporamide A (10 nM, 4 hours), alone or in combination with bortezomib (5 nM), or DiR-labeled untreated BCWM.1 cells used as control were injected in the tail vein of BALB/c mice, followed by in vivo flow cytometry every 5 minutes for 45 minutes after injection.

Akt = assay: In vitro Akt kinase assay; type: cell-based; details: each agent 10 nM
Description: FIG. 4B is a picture showing In vitro Akt kinase assay. […] Whole cell lysates were immunoprecipitated with anti-Akt antibody. Then the immunoprecipitate was washed and subjected to in vitro kinase assay according to manufacturer's protocol. Western blotting used anti-p-GSK3α/β and anti-Akt antibodies.

[6] = tested on: trypsin-like (T-L) activity of the 20S proteasome; assay: 20S proteasome trypsin-like activity in treated cells; details: 10 nM, 4 hours
BCWM.1 cells [7] = type: cell-based; details: for caspases-3, 8 and 9 cleavage: each agent 10 nM
Description: To further dissect whether apoptosis is mediated through the intrinsic or extrinsic pathways, the effect of salinosporamide A, bortezomib and the combination on caspases-3, 8 and 9 was investigated.

[8] = tested on: Akt and STAT-3 phosphorylation; assay: IL-6-triggered Akt and STAT-3 phosphorylation, western blotting; type: cell-based; details: each agent 10 nM, 8 hours; IL-6 25 ng/mL 10 minutes
Procedure: Cells were then stimulated with IL-6 (25 ng/mL) for 10 minutes.
as §1

BCWM.1 cells [9] = assay: cells
Procedure: (§2) FIG. 1A is a graph showing thymidine uptake assay and cytotoxicity assessed by MTT. BCWM.1 cells were cultured with salinosporamide A (2.5-40 nM) for 48 hours.
FIG. 2A is a graph showing BCWM.1 cells cultured with salinosporamide A (2.5, 5 and 10 nM) for 48 hours, in the presence or absence of bortezomib (5 and 10 nM). Cytotoxicity was assessed by MTT assay.
All experiments were repeated in triplicate.

[10] = tested on: BM hematopoietic progenitor cells; assay: Colony-forming cell assay; details: salinosporamide A 10 nM, 20 nM; bortezomib 10 nM; day 14
Description: FIG. 5D is a graph showing colony-forming cell assay. […] All experiments have been done in triplicate.
as §1

[11] = tested on: primary CD19+ cells isolated from three patients with WM; assay: tissue or blood; details: Homo sapiens, read-out: IC50, cytotoxicity in primary CD19+ cells (MTT)
Procedure: FIG. 1D is a graph showing freshly isolated bone marrow CD19^+ tumor cells from 3 patients with WM were cultured with salinosporamide A (2.5-40 nM [E]; 2.5-80 nM [F]). Cytotoxicity was assessed by MTT assay.

WM-WSU, MEC-1, Namalwa [12] = assay: [3H]-thymidine uptake assay, IgM-secreting cell lines; type: cell-based; details: Homo sapiens, MEC1, 48 hours, read-out: IC50, [3H]-thymidine uptake, all cell lines tested
Procedure: FIG. 1B is a graph showing thymidine uptake assay.
WM and IgM-secreting cell lines were cultured for 48 hours in the presence of salinosporamide A (Formula I-16) (2.5-40 nM). […]

[13] = tested on: Akt knockdown BCWM.1 cell line; assay: MTT cytotoxicity in Akt knockdown cell line; details: 2.5-20 nM, 48 hours
Procedure: BCWM.1 transfected cells or BCWM.1 control cells were treated with salinosporamide A (2.5-20 nM) for 48 hours. Cytotoxicity was assessed by MTT assay.

BCWM.1 cells [14] = assay: Transwell migration assay towards SDF-1; type: cell-based; details: each agent 10 nM, 4 hours; SDF-1 30 nM
Description: Cells were then subjected to migration as previously described in Alsayed Y, Ngo H, Runnels J., et al. Mechanisms of regulation of CXCR4/SDF-1 (CXCL12)-dependent migration and homing in multiple myeloma. Blood.

[15] = tested on: PBMCs from 3 healthy volunteers
[16] = tested on: PI3K/Akt signaling pathway in BCWM.1 cells; assay: Western blotting of PI3K/Akt signaling pathway; details: 2.5-20 nM, 6 hours
Description: Whole cell lysate were subjected to Western blotting using anti-p-Akt, -Akt, -p-GSK3α/β, -p-S6R, -p-ERK, and -α-tubulin antibodies.

[17] = tested on: BCWM.1 cells adherent to BMSCs; assay: [3H]-TdR uptake in co-culture with BMSCs; type: cell-based; details: salinosporamide A 2.5-20 nM, bortezomib 10 nM, 48 hours
Procedure: Whether salinosporamide A, alone or in combination with bortezomib, inhibits WM cells growth in the context of the BM milieu was investigated. BCWM.1 cells were cultured with salinosporamide A (2.5-20 nM) and/or bortezomib (10 nM) in the presence or absence of BMSCs, for 48 hours.

WM-WSU, MEC-1, Namalwa [18] = assay: MTT cytotoxicity assay, other IgM-secreting cell lines; type: cell-based; details: Homo sapiens, MEC1; 48 hours
BCWM.1 cells [19] = assay: Apo2.7 staining apoptosis, flow cytometry; type: cell-based; details: 48 hours, untreated 5%
Procedure: FIG. 1E is a graph showing BCWM. 1 cultured with salinosporamide A for 48 hours at doses that range from 2 to 30 nM and the percentage of cells undergoing apoptosis was studied by Apo2.7 staining.
The molecular mechanisms whereby salinosporamide A induces cytotoxicity in WM cells was examined.

NF-κBp65 = NF-κBp65 DNA binding activity (Active Motif assay), TNF-α stimulated; type: cell-based; details: each agent 10 nM, 4 hours; TNF-α 10 ng/mL last 20 minutes
Procedure: FIG. 3A is a graph showing BCWM.1 cells cultured with either salinosporamide A (10 nM), bortezomib (10 nM), or the combination for 4 hours, then human TNF-α (10 ng/mL) was added for the last 20 minutes. NF-κBp65 transcription factor-binding to its consensus sequence on the plate-bound oligonucleotide was studied from nuclear extract. Wild type and mutant are wild type and mutated consensus competitor oligonucleotides, respectively. All results represent means (±sd) of triplicate experiments.
The effect of salinosporamide A either alone or in combination with bortezomib on the NF-κBp65 DNA binding activity was investigated, studying nuclear extracts from treated cells using the Active Motif assay. […] Phospho-p65 translocation from the cytoplasmic compartment to the nucleus was inhibited by the combination of bortezomib and salinosporamide A, resulting in a significant increase in p-p65 expression in the cytoplasmic compartment as shown by immunofluorescence (FIG. 3D).

BCWM.1 cells [20] = assay: [3H]-thymidine uptake proliferation assay; type: cell-based; details: BCWM1; BCWM.1, 48 hours; read-out: IC50, inhibition of proliferation ([3H]-thymidine uptake)
Procedure: as §2
WM and IgM-secreting cell lines were cultured for 48 hours in the presence of salinosporamide A (Formula I-16) (2.5-40 nM).

stability in solution (Stability in solution): unstable in solution
Structure (SMILES): C[C@]1(O)[C@@H](CCCl)C(=O)N[C@]1(C(=O)SCC(NC(=O)CCC(N)C(=O)O)C(=O)NCC(=O)O)[C@@H](O)[C@@H]1C=CCCC1 (some centres unmarked) [Compound I-48]

Akt kinase activity (phosphorylation of GSK3α/β fusion protein) (Akt): did not modulate Akt phosphorylation
Structure (SMILES): CC(C)C[C@H](NC(=O)[C@H](Cc1ccccc1)NC(=O)c1cnccn1)B(O)O [bortezomib, Bortezomib, reference compound]
FN-induced p65 phosphorylation and p50NF-κB expression [1]: inhibited
reduction of the CT-L activity [2]: 69%
reduction of the C-L activity [3]: 29%
responses in WM (WM): 40-80%
IL-6-induced proliferation of BCWM.1 cells (BCWM.1 cells [4]): inhibited IL-6-induced proliferation of BCWM.1 cells
homing of WM cells to the bone marrow [5]: Neither salinosporamide A nor bortezomib used as single agents significantly inhibited homing
reduction of the T-L activity [6]: 5%
caspases-3, 8 and 9 cleavage (BCWM.1 cells [7]; 12 hours): induced-9 and -3 cleavage
IL-6-triggered Akt and STAT-3 phosphorylation [8]: inhibited IL-6-triggered Akt and STAT-3 phosphorylation

Structure (SMILES): C[C@@]12OC(=O)[C@]1([C@@H](O)[C@@H]1C=CCCC1)NC(=O)[C@@H]2CCCl [salinosporamide A]
IC50 (BCWM.1 cells [9]; BCWM1, 48 h, read-out: IC50, decreased survival (MTT)): 0.018 µM
cytotoxicity, % of BCWM.1 cells (MTT) (BCWM.1 cells [9]; human): 12.4%
growth of BM hematopoietic progenitor cells (colony formation) [10]: did not affect the growth of BM hematopoietic progenitor cells
FN-induced p65 phosphorylation and p50NF-κB expression [1]: inhibited
reduction of the CT-L activity [2]: 81%
reduction of the C-L activity [3]: 34.3%
IC50 [11]: 0.02 to 0.03 µM
IC50 (WM-WSU, MEC-1, Namalwa [12]): 0.02 to 0.03 µM
IL-6-induced proliferation of BCWM.1 cells (BCWM.1 cells [4]): inhibited IL-6-induced proliferation of BCWM.1 cells
cytotoxic effect in the absence of Akt [13]: abrogated
WM cells migration towards SDF-1 (BCWM.1 cells [14]): slightly inhibited
homing of WM cells to the bone marrow [5]: Neither salinosporamide A nor bortezomib used as single agents significantly inhibited homing
cytotoxic effect on PBMCs [15]: no cytotoxic effect
phosphorylation of Akt (ser473), GSK3α/β and ribosomal protein S6 [16]: inhibited phosphorylation of Akt (ser473), and downstream GSK3α/β and ribosomal protein S6 in a dose dependent manner
phosphorylation of ERK1/2 (thr202/tyr204) [16]: no activity on the phosphorylation of the MAP kinase ERK1/2
Akt kinase activity (phosphorylation of GSK3α/β fusion protein) (Akt): decreased phosphorylation of GSK3α/β fusion protein
reduction of the T-L activity [6]: 38.7%
BMSC-triggered increase in proliferation of BCWM.1 cells [17]: inhibited by salinosporamide A in a dose-dependent manner
viability of BMSCs (MTT) (BMSCs): not affected
IC50 (WM-WSU, MEC-1, Namalwa [18]): 0.03 to 0.04 µM
percentage of apoptotic BCWM.1 cells (BCWM.1 cells [19]; 5 nM): 21.2%
percentage of apoptotic BCWM.1 cells (BCWM.1 cells [19]; 20 nM): 40%
Mcl-1 expression (BCWM.1 cells [7]; 2.5-20 nM, 12 hours): induced down-modulation of the anti-apoptotic protein Mcl-1
XIAP expression (BCWM.1 cells [7]; 2.5-20 nM, 12 hours): down-regulated the expression of XIAP in a dose-dependent manner
caspase-8 and PARP cleavage (BCWM.1 cells [7]; 2.5-20 nM, 12 hours): induced caspase-8 and PARP cleavage in a dose-dependent manner
caspase-3 and -9 (BCWM.1 cells [7]; 2.5-20 nM, data not shown): without affecting caspase-3 and -9
caspases-3, 8 and 9 cleavage (BCWM.1 cells [7]; 12 hours): induced mild capsase-8 cleavage without affecting caspase-3 and 9 cleavage
IL-6-triggered Akt and STAT-3 phosphorylation [8]: inhibited IL-6-triggered Akt and STAT-3 phosphorylation
TNF-α induced NF-κB recruitment to the nucleus (NF-κBp65 DNA binding) (NF-κBp65): inhibited by salinosporamide A more than bortezomib
IC50 (BCWM.1 cells [20]): 0.015 µM
